Where two headings read alike, the source gives them in different places.
Biological target: Asp-2 (Homo sapiens, UniProt P56817)
Assay: Asp-2 Inhibitory Assay
Format: biochemical
Conditions: Assay (I), FAM-SEVNLDAEFK-TAMRA substrate, pH 4.5
Method: (I) Asp-2 Inhibitory Assay
This is prepared by diluting 2 ml of a 2 mM DMSO solution of the substrate into 400 ml of buffer (100 mM Sodium acetate pH=4.5, 1 l Milli-Q water, 0.06% Triton X-100 (0.5 ml/l), pH adjusted to 4.5 using glacial acetic acid). […] This is prepared by diluting 16 ml of a 500 nM enzyme solution into 384 ml of buffer (prepared as above).
Blank wells (enzyme solution replaced by buffer) are included as controls on each plate.

Asp-2, sequence (P56817 46-501): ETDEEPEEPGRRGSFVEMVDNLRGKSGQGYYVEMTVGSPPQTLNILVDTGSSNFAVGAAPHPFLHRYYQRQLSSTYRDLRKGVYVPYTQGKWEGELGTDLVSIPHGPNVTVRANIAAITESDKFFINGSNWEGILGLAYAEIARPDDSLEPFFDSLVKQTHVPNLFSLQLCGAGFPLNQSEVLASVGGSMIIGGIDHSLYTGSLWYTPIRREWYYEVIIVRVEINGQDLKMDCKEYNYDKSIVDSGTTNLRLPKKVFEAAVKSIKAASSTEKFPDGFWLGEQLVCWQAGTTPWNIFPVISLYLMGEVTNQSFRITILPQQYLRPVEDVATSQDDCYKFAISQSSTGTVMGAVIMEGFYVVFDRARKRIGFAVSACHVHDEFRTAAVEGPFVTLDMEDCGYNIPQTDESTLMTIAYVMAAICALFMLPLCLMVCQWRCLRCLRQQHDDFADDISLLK

Which IC50 (read-out: inhibition (Asp-2)) does the source give for `C[C@H](NC[C@@H](O)[C@H](Cc1ccccc1)NC(=O)c1cc(C2CCCC2)cc(N2CCCC2=O)c1)C(=O)NC1CCCCC1` [Example E12, N-[(1S,2R)-1-Benzyl-3-((S)-1-cyclohexylcarbamoylethylamino)-2-hydroxypropyl]-3-cyclopentyl-5-(2-oxopyrrolidin-1-yl)benzamide] here?
The IC50 was 1 to 50 nM.

How did the IC50 (read-out: inhibition (Asp-2)) turn out when `CCCC[C@H](NC[C@@H](O)[C@H](Cc1ccccc1)NC(=O)c1cc(OC(C)C)cc(N2CCCC2=O)c1)C(=O)NCC(C)C` [Example E179, N-[(1S,2R)-1-Benzyl-2-hydroxy-3-((S)-1-isobutylcarbamoyl-pentylamino)-propyl]-3-isopropoxy-5-(2-oxopyrrolidin-1-yl)benzamide] was run?
Its IC50 is 1 to 50 nM.

For `CCCCCNc1cc(C(=O)N[C@@H](Cc2ccccc2)[C@H](O)CN[C@@H](C)C(=O)NC2CCCCC2)cc(N2CCCC2=O)c1` [Example E54, N-[(1S,2R)-1-Benzyl-3-((S)-1-cyclohexylcarbamoylethylamino)-2-hydroxypropyl]-3-(2-oxopyrrolidin-1-yl)-5-pentylaminobenzamide], which IC50 (read-out: inhibition (Asp-2)) is on record?
The IC50 was 1 to 50 nM.

How did the IC50 (read-out: inhibition (Asp-2)) turn out when `CC(C)CCCC(C)NC[C@@H](O)[C@H](Cc1ccccc1)NC(=O)c1cc(NC(C)C)cc(N2CCCC2=O)c1` (stereo partly drawn) [Example E60, N-[(1S,2R)-1-Benzyl-3-(1,5-dimethylhexylamino)-2-hydroxypropyl]-3-isopropylamino-5-(2-oxopyrrolidin-1-yl)benzamide] was run?
The IC50 was 1 to 50 nM.

Which IC50 (read-out: inhibition (Asp-2)) does the source give for `O=C(NC(Cc1ccccc1)C(O)CNCc1cccc(C(F)(F)F)c1)c1cc(C2CCCC2)cc(N2CCCC2=O)c1` (centres unmarked) [Example E22, N-[1-Benzyl-2-hydroxy-3-(3-trifluoromethylbenzylamino)propyl]-3-cyclopentyl-5-(2-oxopyrrolidin-1-yl)benzamide] here?
The IC50 was 1 to 50 nM.

With `CCNc1cc(C(=O)N[C@@H](Cc2ccccc2)[C@H](O)CNCc2cccc(OC(F)(F)F)c2)cc(N2CCCC2=O)c1` [Example E86, N-[(1S,2R)-1-Benzyl-2-hydroxy-3-(3-trifluoromethoxybenzylamino)-propyl]-3-ethylamino-5-(2-oxopyrrolidin-1-yl)benzamide] as the molecule, how does the IC50 (inhibition (Asp-2)) read?
The IC50 was 1 to 50 nM.

Which IC50 (read-out: inhibition (Asp-2)) does the source give for `CCCCNc1cc(C(=O)N[C@@H](Cc2ccccc2)[C@H](O)CN[C@@H](C)C(=O)NC2CCCCC2)cc(N2CCCC2=O)c1` [Example E56, N-[(1S,2R)-1-Benzyl-3-((S)-1-cyclohexylcarbamoylethylamino)-2-hydroxypropyl]-3-butylamino-5-(2-oxopyrrolidin-1-yl)benzamide] here?
Its IC50 is 1 to 50 nM.

Which IC50 (read-out: inhibition (Asp-2)) does the source give for `CCC(CC)Nc1cc(C(=O)N[C@@H](Cc2ccccc2)[C@H](O)CN[C@@H](C)C(=O)NC2CCCCC2)cc(N2CCCC2=O)c1` [Example E55, N-[(1S,2R)-1-Benzyl-3-((S)-1-cyclohexylcarbamoylethylamino)-2-hydroxypropyl]-3-(1-ethylpropylamino)-5-(2-oxopyrrolidin-1-yl)benzamide] here?
The IC50 was 1 to 50 nM.
